According to patent publication US9758492B2, “IDO inhibitors” (Bristol-Myers Squibb Company, priority 2013, dated 2017):

Molecular target: IDO (Homo sapiens, UniProt P14902)
Assay: LLE_IDO_ABS_DR (IDO assay)

Sequence of IDO (P14902 whole entry): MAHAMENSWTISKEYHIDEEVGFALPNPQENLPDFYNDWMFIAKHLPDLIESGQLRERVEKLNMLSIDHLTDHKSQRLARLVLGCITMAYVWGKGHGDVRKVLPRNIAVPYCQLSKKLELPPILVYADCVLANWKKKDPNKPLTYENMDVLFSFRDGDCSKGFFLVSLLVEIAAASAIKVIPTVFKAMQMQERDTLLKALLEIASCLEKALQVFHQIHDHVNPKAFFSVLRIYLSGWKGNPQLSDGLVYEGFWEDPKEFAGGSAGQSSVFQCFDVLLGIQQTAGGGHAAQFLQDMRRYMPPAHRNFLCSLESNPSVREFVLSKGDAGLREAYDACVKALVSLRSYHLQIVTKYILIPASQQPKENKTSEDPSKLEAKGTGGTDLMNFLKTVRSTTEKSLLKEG

Row | IC50 [nM] | Compound
1 | 170 | O=C(Nc1cc(-c2ccccc2-c2nnn[nH]2)ccc1N(CCC(F)(F)F)Cc1ccc(OC(F)(F)F)cc1)Nc1ccccc1C(F)(F)F [Example 342, 1-(2′-(1H-tetrazol-5-yl)-4-((4-(trifluoromethoxy)benzyl)(3,3,3-trifluoropropyl)amino)-[1,1′-biphenyl]-3-yl)-3-(2-(trifluoromethyl)phenyl)urea]
2 | 1.31 | C#Cc1ccc(NC(=O)Nc2cc(-c3ccccc3-c3nnn[nH]3)ccc2N(CC(C)C)CC(C)C)cc1 [Example 278, 1-(4-(diisobutylamino)-2′-(1H-tetrazol-5-yl)-[1,1′-biphenyl]-3-yl)-3-(4-ethynylphenyl)urea]
3 | 30 | CCN(CC(C)(C)C)c1ccc(-c2ccccc2-c2nnn[nH]2)cc1NC(=O)Nc1ccccc1F [Example 112, 1-(4-(ethyl(neopentyl)amino)-2′-(1H-tetrazol-5-yl)biphenyl-3-yl)-3-(2-fluorophenyl)urea]
4 | 30 | CC(C)CN(c1ccc(-c2cc(F)ccc2C(=O)O)cc1NC(=O)Nc1ccc(F)cc1F)C(C)C [Example 158, 3′-(3-(2,4-difluorophenyl)ureido)-5-fluoro-4′-(isobutyl(isopropyl)amino)biphenyl-2-carboxylic acid]
5 | 1760 | Cc1ccc(NC(=O)Nc2cc(-c3scnc3C(=O)O)ccc2N(CC(C)C)CC(C)C)cc1 [Example 103, 5-(4-(diisobutylamino)-3-(3-p-tolylureido)phenyl)thiazole-4-carboxylic acid]
6 | 160 | CCC1CCCCN1c1ccc(-c2ccccc2-c2nnn[nH]2)cc1NC(=O)Nc1ccc(C)cc1 (stereo not drawn) [Example 114, 1-(4-(2-ethylpiperidin-1-yl)-2′-(1H-tetrazol-5-yl)biphenyl-3-yl)-3-p-tolylurea]
7 | 9.53 | Cc1ccc(NC(=O)Nc2cc(-c3ccccc3-c3nnn[nH]3)ccc2N(CCC2CC2)CC(C)C)cc1 [Example 129, 1-(4-((2-cyclopropylethyl) (isobutyl)amino)-2′-(1H-tetrazol-5-yl)biphenyl-3-yl)-3-p-tolylurea]
8 | 4180 | CC(C)CN(CC(C)C)c1ccc(-c2ccccc2-c2nnn[nH]2)cc1NC(=O)Nc1ccccc1-n1cncn1 [Example 256, 1-(2-(1H-1,2,4-triazol-1-yl)phenyl)-3-(4-(diisobutylamino)-2′-(1H-tetrazol-5-yl)-[1,1′-biphenyl]-3-yl)urea]
9 | 10 | Cc1ccc(NC(=O)Nc2cc(-c3ccccc3-c3nnn[nH]3)ccc2N(CCC(C)C(F)(F)F)CC(C)C)cc1 (stereo not drawn) [Example 202, 1-(4-(isobutyl(4,4,4-trifluoro-3-methylbutyl)amino)-2′-(1H-tetrazol-5-yl)-[1,1′-biphenyl]-3-yl)-3-(p-tolyl)urea]
10 | 30 | Cc1ccc(NC(=O)Nc2cc(-c3ccc(Cl)cc3C(=O)O)ccc2N(CC(C)C)C2CCCCC2)cc1 [Example 120, 4-chloro-4′-(cyclohexyl(isobutyl)amino)-3′-(3-p-tolylureido)biphenyl-2-carboxylic acid]
11 | 90 | Cc1ccc(NC(=O)Nc2cc(-c3cc(F)ccc3C(=O)O)ccc2N(CCC(F)(F)F)Cc2ccc(Cl)cc2)cc1 [Example 15, 4′-((4-Chlorobenzyl)(3,3,3-trifluoropropyl)amino)-5-fluoro-3′-(3-(p-tolyl)ureido)-[1,1′-biphenyl]-2-carboxylic acid]
12 | 9120 | CC(C)CN(CC(C)C)c1ccc(-c2ccccc2-c2nnn[nH]2)cc1NC(=O)NC(C)(C)CC(C)(C)C [Example 288, 1-(4-(Diisobutylamino)-2′-(1H-tetrazol-5-yl)-[1,1′-biphenyl]-3-yl)-3-(2,4,4-trimethylpentan-2-yl)urea]
13 | 40 | Cc1ccc(NC(=O)Nc2cc(-c3cc(F)ccc3C(=O)O)ccc2N(CCC2CC2)CC(C)C)cc1 [Example 130, 4′-((2-cyclopropylethyl) (isobutyl)amino)-5-fluoro-3′-(3-p-tolylureido) biphenyl-2-carboxylic acid]
14 | 7.45 | CC(C)CN(c1ccc(-c2ccccc2-c2nnn[nH]2)cc1NC(=O)Nc1ccc(F)cc1F)C(C)C [Example 156, 1-(2,4-difluorophenyl)-3-(4-(isobutyl (isopropyl)amino)-2′-(1H-tetrazol-5-yl)biphenyl-3-yl)urea]
15 | 3800 | CN(c1ccc(-c2cc(F)ccc2C(=O)O)cc1NC(=O)Nc1ccccc1F)c1ccccc1C(C)(C)C [Example 479]
16 | 1980 | CC(C)CN(CC(C)C)c1ccc(-c2ccccc2-c2nnn[nH]2)cc1NC(=O)NC1CC1 [Example 139, 1-cyclopropyl-3-(4-(diisobutylamino)-2′-(1H-tetrazol-5-yl)biphenyl-3-yl)urea]
17 | 720 | Cc1ccc(NC(=O)Nc2cc(-c3cc(F)ccc3C(=O)O)ccc2N(Cc2ccc(Cl)cc2)C2CCCCC2)cc1 [Example 469]
18 | 350 | O=C(Nc1ccc(C2CC2)c(F)c1)Nc1cc(-c2ccccc2-c2nnn[nH]2)ccc1N(CCC(F)(F)F)Cc1ccc(Cl)cc1Cl [Example 351, 1-(4-cyclopropyl-3-fluorophenyl)-3-(4-((2,4-dichlorobenzyl)(3,3,3-trifluoropropyl)amino)-2′-(1H-tetrazol-5-yl)-[1,1′-biphenyl]-3-yl)urea]

Row | IC50 [nM] | Compound
19 | 5.26 | CC(C)CN(CCC(C)C(F)(F)F)c1ccc(-c2cc(F)ccc2C(=O)O)cc1NC(=O)Nc1ccccc1F (stereo not drawn) [Example 204, 5-fluoro-3′-(3-(2-fluorophenyl)ureido)-4′-(isobutyl(4,4,4-trifluoro-3-methylbutyl)amino)-[1,1′-biphenyl]-2-carboxylic acid]
20 | 250 | CCN(CC(C)(C)C)c1ccc(-c2ccccc2C(=O)O)cc1NC(=O)Nc1ccccc1F [Example 108, 4′-(ethyl(neopentyl)amino)-3′-(3-(2-fluorophenyl)ureido) biphenyl-2-carboxylic acid]
21 | 3.47 | CC(C)CN(c1ccc(-c2ccccc2C(=O)O)cc1NC(=O)Nc1ccccc1F)C1CCCCC1 [Example 122, 4′-(cyclohexyl(isobutyl)amino)-3′-(3-(2-fluorophenyl)ureido) biphenyl-2-carboxylic acid]
22 | 270 | Cc1ccc(NC(=O)Nc2cc(-c3ccccc3C(=O)O)ccc2N(CCC(F)(F)F)Cc2ccccc2Cl)cc1 [Example 17, 4′-((2-Chlorobenzyl)(3,3,3-trifluoropropyl)amino)-3′-(3-(p-tolyl)ureido)-[1,1′-biphenyl]-2-carboxylic acid]
23 | 40 | CCCN(c1ccc(-c2cc(F)ccc2C(=O)O)cc1NC(=O)Nc1ccccc1F)C1CCCC1 [Example 167, 4′-(cyclopentyl(propyl)amino)-5-fluoro-3′-(3-(2-fluorophenyl)ureido)biphenyl-2-carboxylic acid]
24 | 8.81 | Cc1ccc(NC(=O)Nc2cc(-c3ccccc3-c3nnn[nH]3)ccc2N(C)C2CCC(F)(F)CC2)cc1 [Example 106, 1-(4-((4,4-difluoro-cyclohexyl) (methyl)amino)-2′-(1H-tetrazol-5-yl)biphenyl-3-yl)-3-p-tolylurea]
25 | 260 | O=C(Nc1ccc(OC(F)(F)F)cc1)Nc1cc(-c2ccccc2-c2nnn[nH]2)ccc1N(CCC(F)(F)F)Cc1ccc(C(F)(F)F)cc1 [Example 327, 1-(2′-(1H-tetrazol-5-yl)-4-((4-(trifluoromethyl)benzyl)(3,3,3-trifluoropropyl)amino)-[1,1′-biphenyl]-3-yl)-3-(4-(trifluoromethoxy)phenyl)urea]
26 | 180 | CC(C)CNC(=O)Nc1cc(-c2ccccc2-c2nnn[nH]2)ccc1N(CC(C)C)CC(C)C [Example 245, 1-(4-(diisobutylamino)-2′-(1H-tetrazol-5-yl)-[1,1′-biphenyl]-3-yl)-3-isobutylurea]
27 | 2230 | Cc1ccc(NC(=O)Nc2cc(-c3ccccc3-c3nnn[nH]3)ccc2N2CCC(c3ccc(F)cc3)C2)cn1 (stereo not drawn) [Example 387]
28 | 160 | O=C(Nc1ccc(OC(F)(F)F)cc1)Nc1cc(-c2ccccc2-c2nnn[nH]2)ccc1N(CCc1ccccc1)CCC(F)(F)F [Example 331, 1-(4-(phenethyl(3,3,3-trifluoropropyl)amino)-2′-(1H-tetrazol-5-yl)-[1,1′-biphenyl]-3-yl)-3-(4-(trifluoromethoxy)phenyl)urea]
29 | 250 | Cc1ccc(NC(=O)Nc2cc(-c3ccccc3C(=O)O)ccc2N(CCC(F)(F)F)Cc2cccc(Cl)c2)cc1 [Example 11, 4′-((3-Chlorobenzyl)(3,3,3-trifluoropropyl)amino)-3′-(3-(p-tolyl)ureido)-[1,1′-biphenyl]-2-carboxylic acid]
30 | 9.92 | Cc1ccc(NC(=O)Nc2cc(-c3ccccc3-c3nnn[nH]3)ccc2N(CC(C)C)C2CCCC2)cc1 [Example 174, 1-(4-(cyclopentyl (isobutyl)amino)-2′-(1H-tetrazol-5-yl)biphenyl-3-yl)-3-p-tolylurea]
31 | 6.24 | CC(C)CN(CC(C)C)c1ccc(-c2ccccc2C(=O)O)cc1NC(=O)Nc1ccc(F)cc1F [Example 138, 3′-(3-(2,4-difluorophenyl)ureido)-4′-(diisobutylamino) biphenyl-2-carboxylic acid]
32 | 8.1 | CC(C)CN(c1ccc(-c2ccccc2C(=O)O)cc1NC(=O)Nc1ccc(OC(F)(F)F)cc1)C1CCC(F)(F)CC1 [Example 511, 4′-((4,4-Difluorocyclohexyl)(isobutyl)amino)-3′-(3-(4-(trifluoromethoxy)phenyl)ureido)-[1,1′-biphenyl]-2-carboxylic acid]
33 | 30 | CCCN(Cc1ccccc1)c1ccc(-c2cc(F)ccc2C(=O)O)cc1NC(=O)Nc1ccc(C)cc1 [Example 186, 4′-(benzyl(propyl)amino)-5-fluoro-3′-(3-(p-tolyl)ureido)-[1,1′-biphenyl]-2-carboxylic acid]
34 | 2.54 | [2H]C([2H])(C(C)C)N(c1ccc(-c2ccccc2-c2nnn[nH]2)cc1NC(=O)Nc1ccccc1F)C1CCCCC1 [Example 32, 1-(4-(Cyclohexyl(1,1-dideutero-2-methylpropyl)amino)-2′-(1H-tetrazol-5-yl)biphenyl-3-yl)-3-(2-fluorophenyl)urea]
35 | 9370 | Cc1ccc(NC(=O)Nc2cc(-c3ccccc3C(=O)NS(=O)(=O)C(F)(F)F)ccc2N(CC(C)C)CC(C)C)cc1 [Example 234]
36 | 1460 | CC(C)CN(CC(C)C)c1ccc(-c2ccccc2-c2nnn[nH]2)cc1NC(=O)Nc1cccc(-n2ccnc2)c1 [Example 267, 1-(3-(1H-imidazol-1-yl)phenyl)-3-(4-(diisobutylamino)-2′-(1H-tetrazol-5-yl)-[1,1′-biphenyl]-3-yl)urea]
